Measurements from publication PMC6528491 (Frontiers in Pharmacology, 2019).
Converted amounts (≈) assume the structure as drawn. Where two headings read alike, the source gives them in different places.

Key:
[1] = design: method as in 2 sources, ref Wu et al., 2005 ||| ref Li et al., 2014; conditions: cited from earlier work
CYP3A4 = conditions: cited from earlier work
Caco2 cell system = conditions: Caco-2; cited from earlier work
[2] = design: method as in 2 sources, one per row (each row's own in cited_ref): ref Albengres and Tillement, 1992; Keogh et al., 1995 ||| ref Atiq et al., 2016; conditions: ref Albengres and Tillement, 1992; Keogh et al., 1995; cited from earlier work
[3] = rats, cited from earlier work
[4] = Clinical drug-drug interaction study, non-compartmental pharmacokinetics of CsA in blood; type: in vivo, healthy Chinese volunteers; conditions: single 500 mg BG dose with 200 mg CsA; healthy volunteers; NCA
Description: The study was a single center, open-labeled, two-period, fixed-sequence clinical trial. […] Water intake was allowed 2 h after administration of the drug. All participants were given a standardized meal 4 h after dosing. […] Blood samples were withdrawn using vacuum tubes containing EDTA-K2 and immediately transferred to labeled tubes. The samples were stored at −80°C for subsequent analysis. […] Processing of the whole blood samples involved a two-step protein precipitation. Fifty microliters of zinc sulfate (10 mM) were added to 50 μl of a sample. […] After centrifugation, an aliquot (2 μl) of the supernatant was then injected onto an ultra high-performance liquid chromatography coupled with tandem mass spectrometry (UHPLC–MS/MS) device for analysis. UHPLC–MS/MS was performed using an ExionLC™ analytical UHPLC system (AB Sciex, MA, USA), coupled with a Qtrap 4,500 mass spectrometer (AB Sciex, Framingham, MA, USA), equipped with the Turbo lonSpray interface. […] The protonated analyte ions were detected in positive ionization and multiple reaction monitoring modes. […] Calibration curves were linear over the concentration range of 10–3,000 ng/ml. […] Exploratory statistical comparisons of pharmacokinetic parameters between male and female subjects were performed by the t-test for independent data. […]

[5] = cited from earlier work
Description: After oral administration, BG is rapidly hydrolyzed to baicalein ...

[6] = Population pharmacokinetic analysis of CsA (NONMEM, two-compartment model with transit compartments); type: in vivo, healthy Chinese volunteers; conditions: 95% CIs from 1,000 bootstrap samples included 1.0 and were inside 0.8–1.25
P-gp = conditions: rats; after multiple oral doses of BG; ref Tian et al., 2019; cited from earlier work
[7] = intravenous high BG doses (0.23–0.90g/kg) to rats; ref Xin et al., 2013; cited from earlier work
[8] = multiple oral administrations of BG 80 mg/kg, ref Tian et al., 2019
[9] = single dose of BG 136.6 mg/kg, ref Lai et al., 2004

O=c1cc(-c2ccccc2)oc2cc(O)c(O)c(O)c12 [B, baicalein]
Exposure to BG relative to exposure to B ([1]; B single doses to healthy volunteers, ref Li et al., 2014): more than 10 fold
AUC of BG ([1]; after oral administration of 100 mg B, healthy volunteers, ref Li et al., 2014): 580 ng·h/mL
Tmax for both BG and B ([1]; oral B, ref Li et al., 2014): about 1 h
Ki (CYP3A4): 2300 nM
Papp (Caco2 cell system): 9e-06 cm/s

CC(=O)N1CCN(c2ccc(OCC3COC(Cn4ccnc4)(c4ccc(Cl)cc4Cl)O3)cc2)CC1 (centres unmarked) [ketoconazole]
Elevation of CsA concentrations by concomitant administration [2]: several-fold

O=C(O)[C@H]1O[C@@H](Oc2cc3oc(-c4ccccc4)cc(=O)c3c(O)c2O)[C@H](O)[C@@H](O)[C@@H]1O [BG, baicalein 7-O-glucuronide]
AUC of BG ([1]; after oral administration of 750 mg BG, healthy subjects, ref Wu et al., 2005): 613 ng·h/mL
Tmax ([1]; oral BG, ref Wu et al., 2005): 7.4 h
Effect on the exposure of CsA ([3]; multiple intravenous doses of BG, ref Tian et al., 2019): did not affect the exposure of CsA
Decrease of AUC0-∞ of CsA [3, 8]: 25%
Decrease of Cmax of CsA [3, 8]: 38%
Effect on Cmax and AUC0-∞ of CsA ([3]; oral administration of BG, ref Tian et al., 2019): significantly decreased
Effect on exposure to CsA ([3]; ref Lai et al., 2004): increased exposure to oral CsA
Elevation of AUC of CsA compared with CsA alone [3, 9]: ~6 times
Elevation of Cmax of CsA compared with CsA alone [3, 9]: about 4 times
Effect on the pharmacokinetics of CsA ([3]; single intravenous dose and multiple doses of BG, ref Tian et al., 2019): had no effect
Effect of BG co-administration on the exposure of CsA [4]: no clinically relevant effect
Bound to proteins ([5]; human plasma, ref Tang et al., 2006): 86–92%
Solubility ([5]; in water, ref Wu et al., 2011): 57 µg/mL (≈ 128 µM)
Elimination half-life ([5]; ref Noh et al., 2016): 6.36 ± 5.85 h
Oral bioavailability ([5]; ref Wu et al., 2014): 2.2%
Effect of factor BG co-treatment on popPK parameters of CsA (except Ka and Q) [6]: did not affect the respective pharmacokinetic parameters of CsA to a clinically relevant extent
Expression of P-gp in the intestine (P-gp): increased
Expression of P-gp in the liver (P-gp): not changed
Decrease of the clearance of midazolam [7]: up to 43%
Papp (Caco2 cell system): 0.275 ± 1.14 × 10^−6 cm/s
